Patent US6610501B2, “Porcine protein and uses thereof” (New York Blood Center, Inc., priority 1999, dated 2003)

Columns and labels:
Assay type in all cases: cell-based, porcine
pRBCs [1] = assay: Flow cytometry analysis of binding of human xenoreactive antibodies to pRBCs
Method: FIG. 7 represents the effect of the trisaccharide of FIG. 4 on the binding of fractions S1 and S2 to pRBCs. 40 μl of the trisaccharide (2 mg/ml) was added to 2 μl of S1 or S2 plus 38 μl of PBS (final concentration of trisaccharide 1 mg/ml), followed by incubation at 4° C. overnight. pRBCs were then added and flow cytometry analysis performed, using anti-human IgG (H+L) conjugated with phycoerythrin (PE) as the secondary antibody. Sample 1: negative control lacking the primary and secondary antibodies. Sample 2: negative control containing the secondary antibody only. Samples 3 and 4: fraction S1 without and with the trisaccharide of FIG. 4, respectively. Samples 5 and 6: fraction S2 without and with the trisaccharide of FIG. 4, respectively.
FIG. 8 represents the effect of concentration of the trisaccharide of FIG. 4 on the binding of S1 to pRBCs. Fraction S1 was incubated with various amounts of the trisaccharide under the same conditions described in […]. The binding of IgG (curve 1) and IgM (curve 2) molecules from fraction S1 was monitored by flow cytometry, using anti-human IgG and anti-human IgM, respectively. The data from the flow cytometry analyses were plotted as mean fluorescent intensity (MFI) versus the final concentration of trisaccharide, and the curves were generated by nonlinear curve fitting.
FIG. 9 represents the effect of the trisaccharide of FIG. 4 on the binding of anti-αGal and non-αGal antibodies to pRBCs. The control samples (1 and 2) were as described for FIG. 7. (A): anti-αGal antibody incubated in the absence (curve 3) or presence (curve 4) of the trisaccharide (1 mg/ml). (B): Non-αGal antibodies incubated in the absence (curve 3) or presence (curve 4) of the trisaccharide (1 mg/ml). […]
Various fractions derived from human serum were analyzed by flow cytometry. […]
To directly detect non-anti-αGal antibodies from the S2 fraction, we isolated these antibodies by using a pRBC absorption/elution method. The eluted fraction (non-αGal antibodies) was then measured for its binding to pRBCs in the presence or absence of the trisaccharide. […]

pRBCs [2] = conditions: 1 mg/ml trisaccharide, time course experiment at 37° C.; FIG. 5
Source text: FIG. 3 represents the procedure for measuring human complement-mediated hemolysis. The procedure is outlined in panel B. Hemolysis (A) is plotted as percent lysis versus volume of human serum added (μl). Lysis is defined as (OD-ODo)/(OD100−ODo), where OD represents the amount of lysis, as measured by the absorbance at 541 nm, ODo is the absorbance at 541 nm that is due to spontaneous lysis in the absence of any additions, and OD100 is the absorbance at 541 nm that is due to 100% lysis of red cells under the experimental conditions. […]
The hemolysis was monitored up to 4 hr. […]
In blood transfusions between humans, mismatched red cells undergo intravascular destruction by the same mechanism as complement-induced hemolysis observed in vitro. […] Since this serum was derived from type B individuals, as determined by hemagglutination assays, we used only non-type A pRBCs in the complement assays to exclude the binding of anti-A antibody present in the serum.
The human serum (between 3-18 μl) was mixed with 40 μl of 5% pRBCs (about 2×10^7 cells) in a total volume of 210 μl. […] Hemoglobin molecules released from the lysed cells into the supernatant were quantitated by measuring the absorbance at 541 nm. […]
We also measured the time course for complement-mediated hemolysis of pRBCs (FIG. 5). […]

pRBCs [3] = assay: Effect of ssDNA and thyroglobulin on S1- or S2-induced hemagglutination of pRBCs; conditions: final concentration 1 mg/ml, 4° C. 3 hr
Source text: To determine whether the xenoreactive antibodies that we characterized in the binding of pRBCs are polyreactive, we tested the effect of ssDNA and thyroglobulin on binding of antibodies by hemagglutination assays and flow cytometry analyses (Turman M A, Casali P, Notkins A L, Bach F H, and Platt J L (1991) Transplantation 52:710-717). To ensure that the xenoreactive antibodies were not present in excess, we titrated the amount of antibodies used in the hemagglutination assays and chose the dilution that produced an intermediate strength (2+ or 3+) for inhibition. Fraction S1 or S2 was pre-incubated with ssDNA or thyroglobulin (final concentration 1 mg/ml) at 4° C. for 3 hr before adding pRBCs for the hemagglutination assay.

## CC(=O)N[C@H]1C(O)O[C@H](CO)[C@@H](O[C@@H]2O[C@H](CO)[C@H](O)[C@H](O[C@H]3O[C@H](CO)[C@H](O)[C@H](O)[C@H]3O)[C@H]2O)[C@@H]1O (some centres unmarked) [trisaccharide, Galα1,3Galβ1,4GlcNAc]
pRBCs [1]; trisaccharide 1 mg/ml, flow cytometry
  inhibition of anti-αGal antibody in normal human serum: completely inhibited
pRBCs [1]; various trisaccharide concentrations, FIG. 8
  inhibition of IgG versus IgM binding of S1 to pRBCs: inhibit IgG binding more efficiently than IgM binding
pRBCs [2]
  inhibition of cell lysis: approximately 50%

## thyroglobulin: thyroglobulin used to test polyreactivity of the antibodies
pRBCs [3]
  inhibitory effect on S1- or S2-induced hemagglutination: neither ssDNA nor thyroglobulin showed any inhibitory effect
pRBCs [1]; pre-incubation at 0.01, 0.1 or 1.0 mg/ml, FIG. 11
  effect on binding of xenoreactive antibodies to pRBCs: little affected, if any
